Test results: paper PMC4710912, “High Proteolytic Resistance of Spider-Derived Inhibitor Cystine Knots” (International Journal of Peptides, 2015)
Entries after “also recorded” stand apart in the source; their conditions may differ. Like-named read-outs stand apart in the source and are kept apart here. Bridge positions count the residues as written; N and C are the ends. Peptide text beside a SMILES is read from it.

Tests used:
in vitro = conditions: isolated enzyme elastase, pH 8
Method: (§1) Human prolactin releasing peptide (hPRP) was used to show a non-ICK example which contains evenly spaced multiple enzyme cleavage sites. […] To mimic gastric degradation of peptides, 10 μL 100 ng/μL pepsin was mixed with 50 μL 100 ng/μL peptides in 1.5 mL tubes containing 20 μL 1 M glycine (pH2.0) and 20 μL distilled water. To study intestinal degradation of peptides, 10 μL 100 ng/μL trypsin was mixed with 50 μL 100 ng/μL peptides in 1.5 mL tubes containing 10 μL 500 mM Tris-HCl (pH8.0) and 30 μL distilled water; 10 μL 100 ng/μL chymotrypsin was mixed with 50 μL 100 ng/μL peptides in 1.5 mL tubes containing 10 μL 500 mM Tris-HCl (pH8.0), 10 μL 100 mM CaCl2, and 20 μL distilled water; 10 μL 100 ng/μL elastase was mixed with each 50 μL 100 ng/μL peptide in 1.5 mL tube containing 10 μL 500 mM Tris-HCl (pH8.0), 10 μL 100 mM KCl, and 20 μL distilled water. Mixtures of peptides and enzymes were incubated at 37°C for 1–4 hours, and 10 μL aliquots was set aside every 1 hour and placed on ice. 5 μL tricine sample buffer was immediately added to the aliquots and denatured at 100°C for 5 minutes to stop digestion.
(§2) Denatured samples were separated by SDS-PAGE using SuperSep Ace 15–20% tricine gel (Wako, Osaka, Japan) at 200 V for 1 hour. Coomassie Brilliant Blue staining of the gel was performed with e-Stain 2.0 Protein Staining System using eStain Protein Staining Pad (GenScript, NJ, USA). Detected bands were digitized by an image scanner and quantified with Image Studio Digits (LI-COR Biosciences, NE, USA).
(§3) Measurements were converted to the rate of degradation compared to the undegraded values. Experiments were repeated in triplicate and results are indicated as means ± SEM. Statistical significance was determined by Tukey-Kramer test and P values of <0.05 were considered significant.

α-chymotrypsin = α-chymotrypsin (Bos taurus, UniProt P00766); experiment: in vitro; conditions: pH 8
Method: as §1, §2, §3

[1] = In vivo ProTx-II clearance from circulation; conditions: rat
Method: To observe ProTx-II concentration in circulation blood in vivo, three nonfasted male rats were injected with 0.1 mg/mL/kg of ProTx-II from the femoral vein under isoflurane anesthesia. 450 μL blood samples were taken from the tail vein at 0.083 (5 min), 0.25, 0.5, 1, 2, 4, 8, and 24 hours after the injection using Pasteur pipettes coated with heparin sodium. Plasma was obtained by centrifugation at 10,000 g for 3 minutes at 4°C and stored at −25°C protected from light until analysis. Animal experiments were conducted by Nemoto Science Co., Ltd. (Ibaraki, Japan) in accordance with the guideline of the animal experiment ethics committee (authorization number: 14-0024) and under approval of animal experiment ethics committee of AIST (authorization number: 10150125-A-20131029-001).
(§4) For sample preparation, 100 μL plasma was mixed with 20 μL 50% methanol and 200 μL 4% phosphoric acid. Whole sample mixture was added to the Oasis HLB 1 cc/10 mg extraction cartridge (Waters) equilibrated with 1 mL methanol and 1 mL distilled water. The column was washed with 1 mL 5% methanol and eluted with 1 mL methanol. The elute was dried under nitrogen flow and dissolved in 100 μL solvent A/B (30% : 70%, v/v) for LC-MS/MS. 10 μL sample was analyzed by a Waters LC-MS/MS unit; ACQUITY UPLC BEH HILIC, 1.7 μm, 2.1 mm I.D. × 100 mm (Milford, MA) was used at a flow rate of 0.3 mL/min by linear gradient elution (solvent A : solvent B = 30% : 70%, v/v, solvent A: 0.1% TFA, solvent B: acetonitrile) using electrospray ionization for Xevo TQ MS (Waters, MA, USA).

rats = system: rats; parameters: method as in PMID 18728100; conditions: cited from earlier work
[2] = In vitro ProTx-II degradation in rat blood plasma; format: in vitro ADME; conditions: 1 μg/mL in rat (male SD) blood plasma, 37°C, 24 hours, aliquots at 0, 2, 4, 8, 24 hours; LC-MS/MS; mean of n = 3
Method: To observe peptide degradation in vitro, blood was extracted from three 8-week-old male SD rats after anesthesia with isoflurane inhalation and the plasma was separated by centrifugation at 1,850 g for 10 minutes at 4°C. Plasma was stored on ice and used within the day of the experiment. ProTx-II was added to the plasma to make 1 μg/mL mixture and incubated at 37°C for 24 hours, withdrawing 250 μL aliquots at 0, 2, 4, 8, and 24 hours. Samples were kept at −25°C away from light until analysis.
as §4

elastase = elastase (Sus scrofa, UniProt P00772); experiment: in vitro
Sequence of elastase (P00772 27-266): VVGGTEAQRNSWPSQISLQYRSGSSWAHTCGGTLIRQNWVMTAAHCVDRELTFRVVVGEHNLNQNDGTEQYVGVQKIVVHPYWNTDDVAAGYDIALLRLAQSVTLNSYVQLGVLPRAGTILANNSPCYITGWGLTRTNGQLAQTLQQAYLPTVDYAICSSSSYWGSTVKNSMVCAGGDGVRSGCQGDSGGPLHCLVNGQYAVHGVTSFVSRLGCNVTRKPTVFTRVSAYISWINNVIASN
Method: as §1, §2, §3

trypsin = system: trypsin
Method: as §1, with “Mixtures of peptides and enzymes were incubated at 37°C for 1–4 hours, and 10 μL aliquots was set aside every 1 hour and placed on ice. 5 μL tricine sample buffer was immediately added to the aliquots and denatured at 100°C for 5 minutes to stop digestion.” left out
Denatured samples were separated by SDS-PAGE using SuperSep Ace 15–20% tricine gel (Wako, Osaka, Japan) at 200 V for 1 hour. […] Detected bands were digitized by an image scanner and quantified with Image Studio Digits (LI-COR Biosciences, NE, USA).
Measurements were converted to the rate of degradation compared to the undegraded values. […] Statistical significance was determined by Tukey-Kramer test and P values of <0.05 were considered significant.

CC(C)C[C@@H]1NC(=O)[C@@H](NC(=O)CN)CSSC[C@@H]2NC(=O)[C@@H]3CSSC[C@@H](C(=O)N[C@@H](CC(N)=O)C(=O)N[C@@H](Cc4ccccc4)C(=O)N[C@@H](CO)C(=O)N[C@@H](Cc4ccccc4)C(N)=O)NC(=O)[C@H](CC(C)C)NC(=O)[C@H](CCCCN)NC(=O)[C@H](Cc4ccccc4)NC(=O)[C@H](CC(C)C)NC(=O)[C@H](CCCCN)NC(=O)[C@H](CO)NC(=O)[C@H](CSSC[C@H](NC(=O)[C@H](CCCCN)NC(=O)[C@H](Cc4c[nH]c5ccccc45)NC(=O)[C@H](Cc4c[nH]c5ccccc45)NC(=O)[C@H](Cc4ccccc4)NC(=O)[C@H](CCC(=O)O)NC1=O)C(=O)N[C@@H](CC(N)=O)C(=O)N1CCC[C@H]1C(=O)N[C@@H](CC(N)=O)C(=O)N[C@@H](CC(=O)O)C(=O)N[C@@H](CC(=O)O)C(=O)N[C@@H](CCCCN)C(=O)N3)NC(=O)[C@H](CCCCN)NC(=O)[C@H](CC(C)C)NC(=O)[C@H](CCCCN)NC(=O)[C@@H]1CCCN1C(=O)[C@H](CCCNC(=N)N)NC2=O [GsMTx-4] (H-GCLEFWWKCNPNDDKCCRPKLKCSKLFKLCNFSF-NH2; disulfide 2-17, 9-23, 16-30)
remaining at 4 h (in vitro): > 84% | degradation by chymotrypsin, overall result in words (α-chymotrypsin): not degraded at all

CSCC[C@@H]1NC(=O)CNC(=O)[C@H](CCC(=O)O)NC(=O)[C@@H]2CSSC[C@H](NC(=O)[C@@H](N)Cc3ccc(O)cc3)C(=O)N[C@@H](CCC(N)=O)C(=O)N[C@@H](CCCCN)C(=O)N[C@@H](Cc3c[nH]c4ccccc34)C(=O)N[C@@H](CCSC)C(=O)N[C@@H](Cc3c[nH]c4ccccc34)C(=O)N[C@@H]([C@@H](C)O)C(=O)N[C@H]3CSSC[C@H](NC(=O)[C@H](C(C)C)NC1=O)C(=O)N[C@@H](CCCNC(=N)N)C(=O)N[C@@H](CC(C)C)C(=O)N[C@@H](Cc1c[nH]c4ccccc14)C(=O)N[C@H](C(=O)N[C@@H](CCCCN)C(=O)N[C@@H](CCCCN)C(=O)N[C@@H](CCCCN)C(=O)N[C@@H](CC(C)C)C(=O)N[C@@H](Cc1c[nH]c4ccccc14)C(=O)O)CSSC[C@H](NC(=O)[C@H](CCCCN)NC(=O)[C@H](CCCNC(=N)N)NC(=O)[C@H](CCC(=O)O)NC(=O)[C@H](CO)NC(=O)[C@H](CC(=O)O)NC3=O)C(=O)N2 [ProTx-II]
level at 8 h ([1]; male, plasma, iv, 0.1 mg/mL/kg into the femoral vein, 8 hours after administration, LC-MS/MS, n = 3, read-out: ProTx-II concentration in circulation blood at 8 hours (detection limit)): < 30 ng/mL | time for concentration to drop to the detection limit ([1]; 0.1 mg/mL/kg into the femoral vein, detection limit 30.0 ng/mL, LC-MS/MS, n = 3): ≤ 8 h | concentration in circulation corresponding to the detection limit of 30 ng/mL ([1]; 8 hr, molar conversion of the detection limit): 7.8 nM | mortal plasma concentration (rats; 1 mg/kg dosage): 3 µM | dosage reported to be lethal in rats (rats): 1 mg/kg | degradation in rat blood plasma in vitro (in words) [2]: not degraded at all; also recorded: No ProTx-II degradation was observed | peptide remaining undigested with elastase at 4 hours (elastase; elastase, Tris-HCl pH8.0, KCl, 37°C, 4 hours, SDS-PAGE, CBB staining, band quantification, mean of n = 3): over 84% | remaining at 4 h (α-chymotrypsin; isolated enzyme chymotrypsin): 86%

CC(C)C[C@@H]1NC(=O)[C@H](Cc2c[nH]c3ccccc23)NC(=O)[C@H](Cc2ccc(O)cc2)NC(=O)[C@H](CCCNC(=N)N)NC(=O)[C@@H](NC(=O)[C@@H](N)CCC(=O)O)CSSC[C@@H]2NC(=O)[C@@H]3CSSC[C@@H](C(=O)N[C@H](C(=O)N[C@@H](Cc4c[nH]c5ccccc45)C(=O)N[C@@H](CC(=O)O)C(=O)NCC(=O)N[C@H](C(=O)N[C@@H](Cc4ccccc4)C(=O)N[C@@H](CO)C(=O)O)[C@@H](C)O)C(C)C)NC(=O)[C@H](Cc4c[nH]c5ccccc45)NC(=O)CNC(=O)[C@H](Cc4c[nH]cn4)NC(=O)[C@H](CCCNC(=N)N)NC(=O)[C@H](CCCNC(=N)N)NC(=O)[C@H](CO)NC(=O)[C@H](CSSC[C@H](NC(=O)CNC(=O)CNC1=O)C(=O)N[C@@H](CO)C(=O)N[C@@H](C)C(=O)NCC(=O)N[C@@H](CCC(N)=O)C(=O)N[C@@H]([C@@H](C)O)C(=O)N3)NC(=O)[C@H](C(C)C)NC(=O)[C@H](CC(C)C)NC(=O)[C@H](Cc1c[nH]cn1)NC(=O)[C@H](CCCCN)NC2=O [ProTx-I]
digestion by trypsin within 1-hour incubation (in words) (trypsin; pH 8): almost completely digested | remaining at 4 h (elastase; isolated enzyme elastase, pH 8): 22% | degradation by elastase, overall result in words (elastase; pH 8): degraded | degradation by chymotrypsin within 1 hour (in words) (α-chymotrypsin): completely degraded

CC[C@H](C)[C@H](NC(=O)CNC(=O)[C@H](CCCNC(=N)N)NC(=O)[C@H](CO)NC(=O)[C@H](C)NC(=O)[C@H](Cc1ccc(O)cc1)NC(=O)[C@H](Cc1c[nH]c2ccccc12)NC(=O)[C@H](C)NC(=O)[C@@H]1CCCN1C(=O)[C@H](CC(N)=O)NC(=O)[C@@H](NC(=O)[C@H](CC(=O)O)NC(=O)[C@@H]1CCCN1C(=O)[C@@H](NC(=O)[C@H](CCCNC(=N)N)NC(=O)[C@@H](NC(=O)[C@H](CCC(=O)O)NC(=O)[C@H](CCSC)NC(=O)[C@H](CO)NC(=O)[C@H](Cc1c[nH]cn1)NC(=O)[C@H](CCCNC(=N)N)NC(=O)[C@H](Cc1c[nH]cn1)NC(=O)[C@@H](NC(=O)[C@H](CCCNC(=N)N)NC(=O)[C@@H](N)CO)[C@@H](C)O)[C@@H](C)CC)[C@@H](C)O)[C@@H](C)CC)C(=O)N[C@@H](CCCNC(=N)N)C(=O)N1CCC[C@H]1C(=O)N[C@H](C(=O)NCC(=O)N[C@@H](CCCNC(=N)N)C(=O)N[C@@H](Cc1ccccc1)C(N)=O)C(C)C [hPRP, Human prolactin-releasing peptide]
digestion by trypsin within 1-hour incubation (in words) (trypsin; 10 μL 100 ng/μL trypsin + 50 μL 100 ng/μL peptide, Tris-HCl pH8.0, 37°C, 1 hour, SDS-PAGE, CBB staining, n = 3): almost completely digested | degradation by elastase, overall result in words (elastase; elastase, pH8.0, 37°C, up to 4 hours, SDS-PAGE, CBB staining, mean of n = 3): eventually digested all | degradation by chymotrypsin within 1 hour (in words) (α-chymotrypsin): completely degraded
